We go through four molecules from PMC12749811 (Nature Communications, 2025).

Series [1] relates to Cal09-WT virus. It counts as cell-based, influenza A(H1N1)pdm09 virus A/California/07/2009.
For series [2], the system named is A/Sichuan-Shunqing/SWL11211/2023. It counts as cell-based, influenza A(H1N1)pdm09 virus.
For series [3], the system named is Cal09-WT virus. It counts as cell-based, influenza A(H1N1)pdm09 virus A/California/07/2009. The source holds these as a separate data set.
The conditions of series [4]: in vivo; cited from earlier work.
For series [5], the system named is A/Fujian-Licheng/SWL1661/2023. Format: cell-based, influenza A(H1N1)pdm09 virus.

Take `CCOC(=O)C1=C[C@@H](OC(CC)CC)[C@H](NC(C)=O)[C@@H](N)C1` [oseltamivir]: the “concentration at which plaque diameters were inhibited” value in series [1] amounted to 0.01 µM. Further, the “oseltamivir sensitivity” value in series [2] and in series [5] was “remained oseltamivir-sensitive” in each case. Also, the “concentration at which virus replication was significantly inhibited” value in series [3] was determined as 0.1 µM. Further, the average plasma concentration in series [4] was 0.33 µM.

Take `O=C1c2c(O)c(=O)ccn2N([C@@H]2c3ccccc3SCc3c2ccc(F)c3F)[C@@H]2COCCN12` [baloxavir]: in series [1], the “sensitivity in plaque-reduction assay” value is given as “remained high sensitivity”.

As to `CC(=O)N[C@H]1[C@H]([C@H](O)[C@H](O)CO)OC(C(=O)O)=C[C@@H]1N=C(N)N` [zanamivir], the “sensitivity in plaque-reduction assay” value in series [1] is “remained fully sensitive”.

As to `CCC(CC)[C@H](NC(C)=O)[C@@H]1[C@H](O)[C@@H](C(=O)O)C[C@H]1N=C(N)N` [peramivir], the “sensitivity in plaque-reduction assay” value in series [1] is recorded as “remained fully sensitive”.
